row,melting point,SMILES
1,126 °C,CN1C(=O)CN(CC(=O)NCCC(=O)O)C(=O)c2cc(NC(=N)N)ccc21.Cl
2,138 to 140 °C,"O=C(O)C[C@@H](NC(=O)CN1C[C@H](c2ccccc2)Oc2ccc(NC(=O)NCc3ccccc3)cc2C1=O)c1ccccc1 [Example 21, (R,S)-3-{2-[7-(3-benzyl-ureido)-5-oxo-2-phenyl-2,3-dihydro-5H-benzo[f][1,4]oxazepin-4-yl]-acetylamino}-3-phenyl-propionic acid]"
3,116 °C (dec.),"CN1C(=O)CN(CC(=O)NCCC(=O)O)C(=O)c2cc(NC(=O)NCc3ccccc3)ccc21 [Example 3, 3-[2-[7-(3-benzyl-ureido)-1-methyl-2,5-dioxo-1,2,3,5-tetrahydro-benzo[e][1,4]diazepin-4-yl]-acetylamino]-propionic acid]"

# From US6506744B1, “Benzazepinone-derivatives” (Hoffmann-La Roche Inc., priority 1999, dated 2003)
